In brackets after ≈: the same amount, converted by molar mass. Where two headings read alike, the source gives them in different places.
Columns and labels:
[1] = system: Staphylococcus aureus ATCC 43300 (MRSA); test: microbe, parasite or virus in culture; type: cell-based; conditions: Staphylococcus aureus
Experimental: All compounds submitted to CO‐ADD are initially screened against five bacterial strains (Staphylococcus aureus (MRSA), E. coli, Klebsiella pneumoniae, Pseudomonas aeruginosa, Acinetobacter baumannii) and two fungal strains (Candida albicans, Cryptococcus neoformans) at a single concentration (32 μg/mL or 20 μM) performed as a high‐throughput primary screening.[[11], [17a]] Any compounds that show significant growth inhibition against any of the tested strains at this step are then evaluated in a dose‐response assay against these same strains. […]
(§1) Smiles: C1C=CCCC(=CC1)C1=CCCC=CCC1.C[Pt]C.C[Pt]C […]
(§2) ATCC strains were sourced from the American Type Culture Collection and NRS strains from NARSA (Network on Antimicrobial Resistance in Staphylococcus aureus) via BEI Resources (www.beiresources.org), with clinical MSSA and MRSA isolates from Prof Graeme Nimmo, Queensland […]
(§3) Health Central Pathology. […]
(§4) Antibacterial minimum inhibitory concentration (MIC) assay
(§5) Compound Assay Plate Preparation: Compounds were dissolved in DMSO at 10mM (CO-ADD screening) or 4 mM (follow up screening) and were plated in a 2-fold dose response from 20 to 0.156 µM or 200 to 0.006 µM respectively, with a maximum of 0.5% or 1% DMSO, final in the assay […]
(§6) plated in a 2-fold dose response from 200 to 0.006 µM, with a maximum of 1 % DMSO, final in the assay concentration. (in-house screening)
(§7) For all the bacterial assays, each strain was cultured in Cation-adjusted Mueller Hinton broth (CAMHB; Bacto Laboratories 212322) at 37 °C overnight. A sample of each culture was then diluted 40-fold in fresh CAMHB and incubated at 37 °C for 1.5–3 h. The resultant mid-log phase cultures were diluted with CAMHB (CFU mL−1 measured by OD600), then added to each well of the compound-containing plates (384-well non-binding surface (NBS) plates; Corning CLS3640), giving a cell density of 5 × 10^5 CFU mL−1 and a total volume of 50 μL. Plates were covered and incubated at 37 °C for 18 h without shaking. Inhibition of bacterial growth was determined measuring absorbance at 600 nm (OD600), using media only as negative control and bacteria without inhibitors as positive control. MIC values were determined as the lowest concentration at which the growth was inhibited at ≥80%. Colistin sulfate (Sigma C4461) and vancomycin HCl (Sigma 861987) were used as internal controls on each plate for Gram-negative and Gram-positive bacteria, respectively. […]

[2] = system: Staphylococcus aureus ATCC 25923, MSSA; test: Antibacterial MIC assay, Gram-positive panel; type: cell-based; conditions: Staphylococcus aureus
Excerpt: (§8) Bis(dimethyl-η4)-((1Z,1'E,5Z,5'E)-(1,1'-bi(cyclooctadiene))diplatinum(II) (Pt14) Smiles: C1C=CCCC(=CC1)C1=CCCC=CCC1.C[Pt]C.C[Pt]C
(§9) InChIKey: PHIWIZAHOBWKFJ-HPCBIOCFSA-N
(§10) Link to selected data that was repeated to approve the identity of the compounds: https://dx.doi.org/10.14272/PHIWIZAHOBWKFJ-HPCBIOCFSA-N.1
as §2, §3, §4, §5, §6, §7

[3] = system: Staphylococcus aureus VRS 1, VRSA (VanA); test: Antibacterial MIC assay, Gram-positive panel; type: cell-based; conditions: Staphylococcus aureus, VRSA
Excerpt: as §8, §9, §10, §2, §3, §4, §5, §6, §7

[4] = system: Bacillus subtilis ATCC 6051, type strain; test: Antibacterial MIC assay, Gram-positive panel; type: cell-based; conditions: Bacillus subtilis
Experimental: as §1, §2, §3, §4, §5, §6, §7

[5] = system: Enterococcus faecalis ATCC 29212, control strain; test: Antibacterial MIC assay, Gram-positive panel; type: cell-based; conditions: Enterococcus faecalis
Experimental: as §1, §2, §3, §4, §5, §6, §7

[6] = system: Enterococcus faecalis Clinical Isolate, VRE (VanB); test: Antibacterial MIC assay, Gram-positive panel; type: cell-based; conditions: Enterococcus faecalis, VRE
Experimental: as §1, §2, §3, §4, §5, §6, §7

[7] = system: Enterococcus faecium ATCC 35667, type strain; test: Antibacterial MIC assay, Gram-positive panel; type: cell-based; conditions: Enterococcus faecium
Experimental: as §1, §2, §3, §4, §5, §6, §7

[8] = system: Enterococcus faecium ATCC 51559, MDR, VRE (VanA); test: Antibacterial MIC assay, Gram-positive panel; type: cell-based; conditions: Enterococcus faecium
Experimental: as §1, §2, §3, §4, §5, §6, §7

[9] = system: Enterococcus faecium Clinical Isolate, VRE (VanA); test: Antibacterial MIC assay, Gram-positive panel; type: cell-based; conditions: Enterococcus faecium, VRE
Experimental: as §1, §2, §3, §4, §5, §6, §7

[10] = system: Staphylococcus aureus NRS 17, GISA; test: Antibacterial MIC assay, Gram-positive panel; type: cell-based; conditions: Staphylococcus aureus
Experimental: as §1, §2, §3, §4, §5, §6, §7

[11] = system: Staphylococcus epidermidis ATCC 14990, type strain; test: Antibacterial MIC assay, Gram-positive panel; type: cell-based; conditions: Staphylococcus epidermidis
Experimental: as §1, §2, §3, §4, §5, §6, §7

[12] = system: Staphylococcus epidermidis NRS 60, VISE; test: Antibacterial MIC assay, Gram-positive panel; type: cell-based; conditions: Staphylococcus epidermidis
Experimental: as §1, §2, §3, §4, §5, §6, §7

[13] = system: B. subtilis ATCC 6051 type strain; test: MIC in the presence of human serum (serum reversal); type: cell-based, Bacillus subtilis; conditions: Bacillus subtilis, ATCC6051, read-out: MIC in the presence of human serum
Excerpt: (§11) To obtain some initial insight into the apparent disparity between in vitro and in vivo results, we repeated the MIC experiments against four selected Gram‐positive strains in the presence of 10 % or 50 % human serum (Table S3). Pt1 and Pt2 maintained some antibacterial activity against B. subtilis in the presence of 10 % serum, but a complete loss of activity was observed against MRSA and GISA (50 % serum), and VRE (10 % serum). […] Systemic administration is therefore unlikely to be a suitable administration route for this class of compounds unless an alternative formulation that can prevent serum binding (e. g. by lipid or nanoparticle encapsulation) can be found. […] Further in vivo studies should therefore focus on more suitable disease models. […]
as §4
(§12) concentration. (in-house screening)
(§13) Bacto Laboratories 212322) at 37 °C overnight.
(§14) The resultant mid-log phase cultures were diluted
(§15) Gram-negative and Gram-positive bacteria, respectively.
(§16) final concentration range of 0.8 – 100 µM.
(§17) inhibitors as positive control. […]

[14] = system: S. aureus ATCC 43300 MRSA; test: as above; type: cell-based, Staphylococcus aureus; conditions: Staphylococcus aureus, read-out: MIC in the presence of human serum
Excerpt: as §11, §4, §12, §13, §14, §15, §16, §17

[15] = system: S. aureus NRS 17 GISA; test: as above; type: cell-based, Staphylococcus aureus; conditions: Staphylococcus aureus, NRS17, read-out: MIC in the presence of human serum
Excerpt: as §11, §4, §12, §13, §14, §15, §16, §17

[16] = system: E. faecium ATCC 51559 MDR, VRE; test: as above; type: cell-based, Enterococcus faecium; conditions: Enterococcus faecium, read-out: MIC in the presence of human serum
Excerpt: as §11, §4, §12, §13, §14, §15, §16, §17

SMILES: CN[C@H](CC(C)C)C(=O)N[C@H]1C(=O)N[C@@H](CC(N)=O)C(=O)N[C@H]2C(=O)N[C@H]3C(=O)N[C@H](C(=O)N[C@H](C(=O)O)c4cc(O)cc(O)c4-c4cc3ccc4O)[C@H](O)c3ccc(c(Cl)c3)Oc3cc2cc(c3O[C@@H]2O[C@H](CO)[C@@H](O)[C@H](O)[C@H]2O[C@H]2C[C@](C)(N)[C@H](O)[C@H](C)O2)Oc2ccc(cc2Cl)[C@H]1O [Vancomycin, reference compound]
- MIC ([1]; Table 2 panel, n=2): 0.35 to 0.69 µg/mL (≈ 0.242 to 0.476 µM)
- MIC ([1]; Table S1, vancomycin control): 0.5 to 1 µg/mL (≈ 0.345 to 0.69 µM)
- MIC ([1]; read-out: MIC Sa, CO‐ADD screening, control antibiotic): 1 µg/mL (≈ 0.69 µM)
- MIC ([2]; Table 2 panel, n=4): 0.69 µg/mL (≈ 0.476 µM)
- MIC ([2]; Table S1, vancomycin control): 1 µg/mL (≈ 0.69 µM)
- MIC ([3]; Table 2 panel, n=4): > 44.2 µg/mL
- MIC ([3]; Table S1, vancomycin control): > 64 µg/mL
- MIC ([4]; ATCC6051, Table 2 panel, n=2): 0.35 µg/mL (≈ 0.242 µM)
- MIC ([4]; ATCC6051, Table S1, vancomycin control): 0.5 µg/mL (≈ 0.345 µM)
- MIC ([5]; ATCC29212, Table 2 panel, n=4): 1.38 to 2.76 µg/mL (≈ 0.952 to 1.9 µM)
- MIC ([5]; ATCC29212, Table S1, vancomycin control): 2 to 4 µg/mL (≈ 1.38 to 2.76 µM)
- MIC ([6]; Table 2 panel, n=4): > 44.2 µg/mL
- MIC ([6]; Table S1, vancomycin control): 64 µg/mL (≈ 44.2 µM)
- MIC ([7]; ATCC35667, Table 2 panel, n=4): 0.35 µg/mL (≈ 0.242 µM)
- MIC ([7]; ATCC35667, Table S1, vancomycin control): 0.5 µg/mL (≈ 0.345 µM)
- MIC ([8]; Table 2 panel, n=2): > 44.2 µg/mL
- MIC ([8]; Table S1, vancomycin control): > 64 µg/mL
- MIC ([9]; Table 2 panel, n=4): > 44.2 µg/mL
- MIC ([9]; Table S1, vancomycin control): > 64 µg/mL
- MIC ([10]; NRS17, Table 2 panel, n=2): 5.52 µg/mL (≈ 3.81 µM)
- MIC ([10]; NRS17, Table S1, vancomycin control): 8 µg/mL (≈ 5.52 µM)
- MIC ([11]; ATCC14990, Table 2 panel, n=4): 0.69 to 1.38 µg/mL (≈ 0.476 to 0.952 µM)
- MIC ([11]; ATCC14990, Table S1, vancomycin control): 1 to 2 µg/mL (≈ 0.69 to 1.38 µM)
- MIC ([12]; NRS60, Table 2 panel, n=4): 2.76 µg/mL (≈ 1.9 µM)
- MIC ([12]; NRS60, Table S1, vancomycin control): 4 µg/mL (≈ 2.76 µM)
- MIC [13]: 0.5 µg/mL
- MIC [14]: 0.5 to 1 µg/mL
- MIC [15]: 8 µg/mL
- MIC [16]: > 64 µg/mL
